Literature values, collected in patent publication US7547545B2, “Directed in vitro differentiation of marrow stromal cells into neural cell progenitors” (priority 2001, dated 2009).

How the values were obtained:
C6 glioma cells = conditions: Sharma et al. 1987 and Ghosh et al. 1997
prostate tumor cells = conditions: Cox et al. 1999
[1] = tested on: medulloblastoma cell line, MCD-1; conditions: MCD-1 cells, Moore et al. 1996

Row | Compound | neural differentiation (C6 glioma cells) | neuroendocrine characteristics (prostate tumor cells) | extension of processes [1]
1 | CCCC(=O)Nc1ncnc2c1ncn2[C@@H]1O[C@@H]2COP(=O)(O)O[C@H]2[C@H]1OC(=O)CCC [dbcAMP, dibutyryl cyclic AMP] | induced neural differentiation | induce prostate tumor cells to assume many of the characteristics of neuroendocrine cells | greatly increase the extension of processes
2 | CC(C)NCC(O)c1ccc(O)c(O)c1 (centres unmarked) [isoproterenol] | – | induce prostate tumor cells to assume many of the characteristics of neuroendocrine cells | –
3 | CNC[C@H](O)c1ccc(O)c(O)c1 [epinephrine] | – | induce prostate tumor cells to assume many of the characteristics of neuroendocrine cells | –
